Laboratory results published in PMC3855752, “Function and Distribution of 5-HT2 Receptors in the Honeybee (Apis mellifera)” (PLoS ONE, 2013).
Read-outs that look alike come from different tables or passages of the source.

Assays:
Type in all cases: cell-based
Am5-HT2α [1] = target: T1, Am5-HT2α (Apis mellifera, UniProt A0A8U1C256); assay: Fluo-4 intracellular Ca2+ assay in stable HEK […] cells
T1 construct: gene 5-HT2alpha; cDNA from drone brain

Am5-HT2β [2] = target: T2, Am5-HT2β (Apis mellifera, UniProt A0ACM8QMF9); assay: as above
T2 construct: gene 5-HT2beta; cDNA from drone brain

Am5-HT2α [3] = target: T1, Am5-HT2α; assay: Fluo-4 intracellular Ca2+ assay in stable HEK […] cells, inhibition of serotonin response; details: read-out: Am5-HT2αIC50
Am5-HT2β [4] = target: T2, Am5-HT2β; assay: as above; details: read-out: Am5-HT2βIC50

T1 sequence (A0A8U1C256 entry or part of it): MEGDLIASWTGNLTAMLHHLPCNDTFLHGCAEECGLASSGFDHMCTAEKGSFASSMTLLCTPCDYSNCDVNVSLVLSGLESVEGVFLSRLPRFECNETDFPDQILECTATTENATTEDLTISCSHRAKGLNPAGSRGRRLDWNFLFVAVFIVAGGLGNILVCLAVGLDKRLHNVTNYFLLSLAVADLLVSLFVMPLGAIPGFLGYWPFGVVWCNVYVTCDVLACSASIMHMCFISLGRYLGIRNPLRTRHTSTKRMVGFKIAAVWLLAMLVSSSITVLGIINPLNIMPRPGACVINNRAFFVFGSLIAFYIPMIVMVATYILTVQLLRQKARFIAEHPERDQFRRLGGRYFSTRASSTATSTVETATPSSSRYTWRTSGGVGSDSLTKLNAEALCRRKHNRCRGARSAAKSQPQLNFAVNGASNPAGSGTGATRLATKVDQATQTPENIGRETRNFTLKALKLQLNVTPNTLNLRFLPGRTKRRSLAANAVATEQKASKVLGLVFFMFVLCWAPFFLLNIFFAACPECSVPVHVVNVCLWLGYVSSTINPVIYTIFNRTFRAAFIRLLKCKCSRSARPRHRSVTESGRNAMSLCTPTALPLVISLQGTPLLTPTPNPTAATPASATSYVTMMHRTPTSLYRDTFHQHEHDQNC
T2 sequence (A0ACM8QMF9 entry or part of it): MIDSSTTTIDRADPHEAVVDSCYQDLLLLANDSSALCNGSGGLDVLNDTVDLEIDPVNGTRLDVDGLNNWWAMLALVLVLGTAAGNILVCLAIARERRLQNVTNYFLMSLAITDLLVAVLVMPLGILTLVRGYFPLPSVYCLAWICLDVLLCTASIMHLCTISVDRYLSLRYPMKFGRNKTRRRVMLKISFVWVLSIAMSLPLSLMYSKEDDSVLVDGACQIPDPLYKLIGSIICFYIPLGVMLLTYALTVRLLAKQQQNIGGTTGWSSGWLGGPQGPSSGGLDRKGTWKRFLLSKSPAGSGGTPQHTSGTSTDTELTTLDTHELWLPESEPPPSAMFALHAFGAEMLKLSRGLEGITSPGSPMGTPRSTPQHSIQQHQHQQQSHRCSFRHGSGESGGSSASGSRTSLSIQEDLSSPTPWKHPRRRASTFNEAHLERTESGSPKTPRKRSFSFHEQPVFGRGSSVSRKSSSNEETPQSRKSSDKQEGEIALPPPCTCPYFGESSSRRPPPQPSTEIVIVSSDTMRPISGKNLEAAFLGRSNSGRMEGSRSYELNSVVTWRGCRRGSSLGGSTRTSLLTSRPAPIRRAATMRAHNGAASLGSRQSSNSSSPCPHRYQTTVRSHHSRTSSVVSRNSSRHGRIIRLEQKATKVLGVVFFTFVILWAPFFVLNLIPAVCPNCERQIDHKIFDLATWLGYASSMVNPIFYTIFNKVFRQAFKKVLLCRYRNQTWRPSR

COc1ccc2[nH]cc(CCN)c2c1 [5-methoxytryptamine]
EC50 (Am5-HT2α [1]): 70 nM | EC50 (Am5-HT2β [2]): 60.4 nM

CCCN(CCC)C1CCc2cccc(O)c2C1 (stereo not shown) [8-OH-DPAT, 8-hydroxy-2-(di-n-propylamino)tetralin]
EC50 (Am5-HT2α [1]; read-out: EC50): 55900 nM | EC50 (Am5-HT2β [2]; read-out: EC50): 562 nM

Cn1ccc2cc(NC(=O)Nc3cccnc3)ccc21 [SB-200646]
IC50 (Am5-HT2α [3]): 100 nM

O=C(c1ccc(F)cc1)C1CCN(CCn2c(=O)[nH]c3ccccc3c2=O)CC1 [ketanserin]
IC50 (Am5-HT2β [4]): 1500 nM

CSc1ccc2c(c1)C(N1CCN(C)CC1)Cc1ccccc1S2 (stereo not shown) [methiothepin]
IC50 (Am5-HT2α [3]): 600 nM

CC[C@@H](CO)NC(=O)[C@@H]1C=C2c3cccc4c3c(cn4C)C[C@H]2N(C)C1 [methysergide]
IC50 (Am5-HT2α [3]): 2200 nM

NCCc1c[nH]c2ccc(O)cc12 [serotonin]
EC50 (Am5-HT2α [1]; read-out: EC50): 25.7 nM | EC50 (Am5-HT2β [2]; read-out: EC50): 32.5 nM
